Laboratory results reported in PubChem BioAssay AID651617 (Broad Institute, 2012).

Each molecule was assayed on M. tuberculosis log-phase replicating growth, plate reader (assay: growth inhibition of replicating M. tuberculosis, dose response, counter-screen, dry powder (AID 651617)).
In the case of `c1ccc(-c2nnc(SCC3CC3)o2)cc1`, the IC90 is reported as 125 µM. `c1ccc(-c2nnc(SCc3cccnc3)o2)cc1` was tested, and the IC90 was 125 µM. For `[N-]=[N+]=NCCOCCNC(=O)CCCOc1ccc(CS(=O)c2nnc(-c3ccc(F)cc3)o2)nc1` (stereo not drawn), the IC90 was 125 µM.
